Measured values taken from PMC11184559, “Identification and Validation of Compounds Targeting Leishmania major Leucyl-Aminopeptidase M17” (ACS Infectious Diseases, 2024).
Values joined by “and” are separate entries in the source; they are usually repeats but may differ in a detail not shown here. Equal values may be shown once.

Legend:
rLmLAP [1] = target: T1, rLmLAP (Leishmania major, UniProt Q7KF27); experiment: RapidFire-MS aminopeptidase activity assay: inhibition of rLmLAP (LSTVIVR substrate); type: biochemical; settings: for IC50: RapidFire-MS, 5 nM enzyme, 10 μM LSTVIVR, 20 min preincubation, 0.195-100 μM, mean ± standard error (n = 3)
T1 sequence (Q7KF27 entry or part of it): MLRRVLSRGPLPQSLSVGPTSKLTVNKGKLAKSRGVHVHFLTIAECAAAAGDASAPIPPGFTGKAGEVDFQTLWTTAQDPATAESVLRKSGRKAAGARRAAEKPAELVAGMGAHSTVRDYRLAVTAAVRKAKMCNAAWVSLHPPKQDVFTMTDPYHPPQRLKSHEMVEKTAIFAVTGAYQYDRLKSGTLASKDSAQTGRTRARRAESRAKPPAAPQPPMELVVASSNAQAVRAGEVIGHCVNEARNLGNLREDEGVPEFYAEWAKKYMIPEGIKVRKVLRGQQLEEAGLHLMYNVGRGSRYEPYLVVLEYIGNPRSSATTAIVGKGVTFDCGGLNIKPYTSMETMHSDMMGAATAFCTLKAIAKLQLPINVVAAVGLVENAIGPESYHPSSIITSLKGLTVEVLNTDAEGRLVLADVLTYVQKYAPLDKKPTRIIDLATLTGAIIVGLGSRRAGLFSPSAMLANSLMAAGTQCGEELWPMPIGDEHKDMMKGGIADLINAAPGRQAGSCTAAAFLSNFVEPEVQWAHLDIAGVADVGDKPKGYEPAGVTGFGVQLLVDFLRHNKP
Procedure: Assays were carried out as previously described,[24] with some differences indicated below. The reaction mix consisted of 0 nM (control) and 30 nM rLmLAP in 1× PBS, pH 7.0, 0.005% (v/v) NP-40, plus 7.5 μL of LSTVIVR substrate peptide in the same buffer. For product quantification, the peak areas of the LSTVIVR peptide were integrated with respect to the internal standard LSTVIVR* peptide. The C-terminal arginine was chosen because this amino acid is amenable to isotopic labeling.[45]
rLmLAP was assayed at 5 nM with 10 μM (1× appKM) of LSTVIVR substrate peptide. The enzyme was preincubated with bestatin or DMSO for 20 min. Bestatin was prepared at 10 concentrations in DMSO, covering the range from 0.39 to 100 μM. […] The remaining experimental conditions were maintained, as described above.
A high-throughput screen was conducted against rLmLAP using 3,383 compounds with known protease inhibitor motifs. The compounds were dispensed onto plates using an ECHO 550 acoustic dispenser (Labcyte, Sunnyvale, CA). The enzyme was assayed at 5 nM with 10 μM (1× appKM) LSTVIVR substrate for 60 min. Before adding the substrate, the enzyme was preincubated with 45 nL of the compounds or DMSO for 20 min. Compounds, dissolved in DMSO, were tested at 30 μM. […] No replicates were performed for each inhibitor in this experiment. The remaining experimental conditions were kept constant as described above. The ActivityBase program from IDBS provider (https://www.idbs.com) was used to process and analyze the data. Selection criteria for potential inhibitors in this screen required an inhibition percentage greater than the mean (calculated from the inhibition percentages of all the inhibitors) plus three standard deviations (SD). All compounds were purchased commercially and are >95% pure by HPLC.
To obtain IC50 data for screen-detected rLmLAP inhibitors at a single concentration, ten-point concentration–response curves were generated for selected inhibitors showing greater than mean ±3 SD inhibition. The curves were prepared in 384-well plates with a maximum concentration of 100 μM and 1:2 serial dilutions in DMSO (0.195–100 μM) using an ECHO 550 acoustic dispenser. All other experimental conditions were as described above for RapidFire-MS optimization. Three replicates of each concentration of inhibitor were evaluated. The IC50 value was calculated by nonlinear fitting of a four-parameter logistic function to the experimental data. Curve fitting and IC50 calculations were performed using IDBS ActivityBase XE version 9.2.0.106. Inhibitory activity was determined using the peak area ratio, calculated as the reaction product (STVIVR) divided by its internal standard (*LSTVIVR). The peak area ratio of the reaction without enzyme was defined as 100% inhibitory activity, and that of the complete reaction mixture was defined as 0% inhibitory activity. At least three replicates were generated for each hit compound.

rHsLAP = target: T2, rHsLAP (Homo sapiens, UniProt P28838); experiment: RapidFire-MS selectivity study against human LAP; type: biochemical; settings: for IC50: 150 nM rHsLAP, 600 μM LSTVIVR, 1 mM ZnCl2, 180 min
T2 construct: purchased Assay Genie, Ireland
T2 sequence (P28838 whole entry): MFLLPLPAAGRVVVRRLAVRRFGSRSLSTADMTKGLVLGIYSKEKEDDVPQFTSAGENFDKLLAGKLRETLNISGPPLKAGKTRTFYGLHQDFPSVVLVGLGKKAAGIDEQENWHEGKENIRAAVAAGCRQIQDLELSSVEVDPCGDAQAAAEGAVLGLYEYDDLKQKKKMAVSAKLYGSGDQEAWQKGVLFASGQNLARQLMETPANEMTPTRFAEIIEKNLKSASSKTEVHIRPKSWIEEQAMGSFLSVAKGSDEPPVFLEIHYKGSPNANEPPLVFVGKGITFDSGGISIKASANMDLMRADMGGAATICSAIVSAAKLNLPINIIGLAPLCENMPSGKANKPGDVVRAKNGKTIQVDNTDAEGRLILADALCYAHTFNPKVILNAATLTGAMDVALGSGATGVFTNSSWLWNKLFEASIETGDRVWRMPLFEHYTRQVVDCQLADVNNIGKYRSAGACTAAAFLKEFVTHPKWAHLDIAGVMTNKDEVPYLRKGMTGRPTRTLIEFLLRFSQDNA
Procedure: The reaction mixture included 600 μM (1× appKM) LSTVIVR substrate peptide, 1 mM ZnCl2, and the reaction time was 180 min. The inhibitors were tested at concentrations ranging from 0.78 to 100 μM to determine inhibitory activity.

rLmLAP [2] = target: T1, rLmLAP; experiment: Mode of inhibition studies for rLmLAP (Leu-pNA, Lineweaver-Burk); type: biochemical; settings: for Modality of rLmLAP inhibition: Lineweaver-Burk, 0, 15, 30, 60 μM inhibitor, L-Leu-pNA 0.59-300 μM
Procedure: The aminopeptidase enzymatic activity was determined by a continuous kinetic method.[26] The reaction was performed in 50 mM sodium phosphate, pH 7.0, in the presence of 13.9 nM rLmLAP (which is within the linear range of the v0 vs. enzyme concentration relationship) and 30 μM (1 appKM; 23) of the chromogenic substrate L-Leu-p-nitroanilide (Leu-pNA; 2 μL, in DMSO). The reaction was carried out at 25 °C in 96-well microplates (200 μL final volume), in a microplate spectrophotometer (FLUOstar OPTIMA, Germany). The increase of the absorbance at 405 nm (due to the release of the pNA chromogen) was recorded every 15 s for 5 min. Only the linear ranges of the typical curves, corresponding to substrate consumptions lower than 5% (v0 conditions) were used to measure the reaction velocity. Slopes with determination coefficients (R^2) < 0.98 were not considered for linear fits.
For the determination of the inhibition mode, inhibitors were used at 0, 15, 30, and 60 μM. For each inhibitor concentration, the substrate Leu-pNA was added at different concentrations (0.59–300 μM). Experimental data were transformed, and the Lineweaver–Burk double reciprocal plots were constructed. The following equation was used: [drawing 3] 3 where appvmax is the apparent maximal rate of the reaction, and [S]0 is the initial substrate concentration.[26] The inhibition type was determined graphically from the lines of the double reciprocal plots.[26]

[3] = tested on: LmLAP-overexpressing L. major promastigotes; type: cell-based, Leishmania major; settings: compound at EC50, 72 h, n = 70 cells per condition
Procedure: L. major promastigotes (WT and LmLAP OE) were grown in supplemented HOMEM media as described above, in T25 flasks. […] L. major WT cells were grown at control conditions. Briefly, cells were fixed directly in culture media with 3% (v/v) paraformaldehyde for 15 min at room temperature, washed three times with excess D-PBS, permeabilized with 0.2% Triton X-100 (v/v) in PBS for 5 min, and washed three times in excess PBS. Slides were mounted with mounting medium with DAPI (Vectashield Lab H-1000–10). Microscopy was carried out on a Zeiss microscope and images captured using software Zen Blue (Zeiss). Analysis of images and figure preparation were made in Omero.[71]

Structure (SMILES)	inhibition at 100 µM (rLmLAP [1])	IC50 (rLmLAP [1])	inhibition at 100 µM (rHsLAP)	IC50 (rHsLAP)	Modality of rLmLAP inhibition (rLmLAP [2])	α (noncompetitive inhibition mechanism) (rLmLAP [2]; α > 1: preferential binding to free enzyme)	Frequency of elongated 1K1N1F forms in LmLAP-overexpressing cells [3]	Experimental ΔΔG (rLmLAP [1]; DDD00097924 relative to DDD00057570)
COc1ccc(Cc2c(N)nc(-c3ccccn3)nc2N)cc1 [DDD00057570]	99%	3.3 µM and 3 µM	35%	> 100 µM	noncompetitive inhibitor	> 1	~36%	
O=C(c1cccs1)N(CCCn1ccnc1)c1nc2ccccc2s1 [DDD00097924]	75%	30.9 µM and 31 µM	62%	98 µM	competitive mode inhibition		~36%	1.3 kcal/mol
